As a reminder, the IC50 is the midpoint of a concentration-inhibition curve.

The assay has as its target USP30 (Homo sapiens (Human), UniProt Q70CQ3). As to the kind of experiment: USP30 biochemical IC50 assay (fluorescence polarisation). Conditions: enzyme and compound incubated 30 min at room temp; TAMRA labelled peptide-ubiquitin substrate 50 nM; read after 2 hr incubation; read-out: IC50 range. Here is the method:
USP30 Biochemical IC50 Assay
Dilution plates were prepared at 21 times the final concentration ([…] for a final concentration of 100 μM) in 50% DMSO in a 96-well polypropylene V-bottom plate (Greiner #651201). A typical 8-point dilution series to be 100, 30, 10, 3, 1, 0.3, 0.1, […].
Reactions were performed in duplicate in black 384 well plates (small volume, Greiner 784076) in a final reaction volume of 21 μl. Either 1 μl of 50% DMSO or diluted compound was added to the plate. USP30 was diluted in reaction buffer (40 mM Tris, pH 7.5, 0.005% Tween 20, 0.5 mg/ml BSA, 5 mM beta-mercaptoethanol) to the equivalent of 0.05 µl/well and 10 μl of diluted USP30 was added to the compound. Enzyme and compound were incubated for 30 min at room temp. Reactions were initiated by the addition of 50 nM of TAMRA labelled peptide linked to ubiquitin via an iso-peptide bond as fluorescence polarisation substrate. Reactions were read immediately after addition of substrate and following a 2 hr incubation at room temperature. Readings were performed on a Pherastar Plus (BMG Labtech). λ Excitation 540 nm; λ Emission 590 nm.

Sequence of USP30 (Q70CQ3 57-517): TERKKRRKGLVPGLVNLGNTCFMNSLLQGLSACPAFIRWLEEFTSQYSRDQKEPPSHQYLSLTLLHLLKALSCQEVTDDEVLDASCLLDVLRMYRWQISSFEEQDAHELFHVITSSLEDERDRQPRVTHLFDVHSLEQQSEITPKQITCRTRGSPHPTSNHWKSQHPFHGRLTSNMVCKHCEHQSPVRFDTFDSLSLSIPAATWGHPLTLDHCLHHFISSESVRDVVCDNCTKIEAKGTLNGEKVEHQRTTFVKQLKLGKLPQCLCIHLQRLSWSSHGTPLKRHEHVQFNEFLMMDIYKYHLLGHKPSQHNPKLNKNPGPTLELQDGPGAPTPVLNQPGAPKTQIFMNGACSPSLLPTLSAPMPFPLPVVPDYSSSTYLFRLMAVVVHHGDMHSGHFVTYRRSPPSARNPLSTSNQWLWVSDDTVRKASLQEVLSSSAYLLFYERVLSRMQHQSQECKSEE

In the case of `Cn1nccc1-c1ccc2c(c1)CCN2C(=O)C1(F)CCN(C#N)C1` (stereo not shown) [Example 36, 3-Fluoro-3-(5-(1-methyl-1H-pyrazol-5-yl)indoline-1-carbonyl)pyrrolidine-1-carbonitrile], the IC50 was 1 to 10 µM.
The value for `CN1CCN(c2ccc(-c3ccc4c(c3)CCN4C(=O)C3(F)CCN(C#N)C3)cc2)CC1` (stereo not shown) [Example 37, 3-Fluoro-3-(5-(4-(4-methylpiperazin-1-yl)phenyl)indoline-1-carbonyl)pyrrolidine-1-carbonitrile] was 0.1 to 1 µM; that for `CN1CCN(C(=O)c2ccc(-c3ccc4c(c3)CCN4C(=O)C3(F)CCN(C#N)C3)cc2)CC1` (stereo not shown) [Example 38, 3-Fluoro-3-(5-(4-(4-methylpiperazine-1-carbonyl)phenyl)indoline-1-carbonyl)pyrrolidine-1-carbonitrile] was 1 to 10 µM.
For `Cn1ncc2cc(-c3ccc4c(c3)CCN4C(=O)C3(F)CCN(C#N)C3)ccc21` (stereo not shown) [Example 39, 3-Fluoro-3-(5-(1-methyl-1H-indazol-5-yl)indoline-1-carbonyl)pyrrolidine-1-carbonitrile], the half-inhibitory concentration (IC50) was 0.1 to 1 µM.
In the case of `Cc1ccc(F)c(-c2ccc3c(c2)CCN3C(=O)C2(F)CCN(C#N)C2)c1` (stereo not shown) [Example 40, 3-Fluoro-3-(5-(2-fluoro-5-methylphenyl)indoline-1-carbonyl)pyrrolidine-1-carbonitrile], the half-maximal inhibitory concentration (IC50) was less than 0.1 µM.
In the case of `Cc1ccc2[nH]ncc2c1-c1ccc2c(c1)CCN2C(=O)C1(F)CCN(C#N)C1` (stereo not shown) [Example 41, 3-Fluoro-3-(5-(5-methyl-1H-indazol-4-yl)indoline-1-carbonyl)pyrrolidine-1-carbonitrile] it was 0.1 to 1 µM; in that of `N#CN1CCC(F)(C(=O)N2CCc3cc(-c4cccc(NS(=O)(=O)C5CC5)c4)ccc32)C1` (stereo not shown) [Example 42, N-(3-(1-(1-Cyano-3-fluoropyrrolidine-3-carbonyl)indolin-5-yl)phenyl)cyclopropanesulfonamide], 0.1 to 1 µM.
`COc1ccc(-c2ccc3c(c2)CCN3C(=O)C2(F)CCN(C#N)C2)cn1` (stereo not shown) [Example 43, 3-Fluoro-3-(5-(6-methoxypyridin-3-yl)indoline-1-carbonyl)pyrrolidine-1-carbonitrile]: the IC50 fell in the range of 0.1 to 1 µM.
In the case of `CCN(C(=O)[C@@H]1CCN(C#N)C1)c1ccc(-c2ccc(C#N)cc2)cn1` [Example 44, (R)-1-Cyano-N-(5-(4-cyanophenyl)pyridin-2-yl)-N-ethylpyrrolidine-3-carboxamide] it was 1 to 10 µM; in that of `CN(Cc1nc2ccccc2s1)C(=O)C1CCN(C#N)C1` (stereo not shown) [Example 45, N-(Benzo[d]thiazol-2-ylmethyl)-1-cyano-N-methylpyrrolidine-3-carboxamide], 1 to 10 µM; in that of `CN(Cc1cc(-c2ccccc2)no1)C(=O)C1CCN(C#N)C1` (stereo not shown) [Example 46, 1-Cyano-N-methyl-N-((3-phenylisoxazol-5-yl)methyl)pyrrolidine-3-carboxamide], 1 to 10 µM.
The value for `CN(Cc1csc(-c2ccccc2)n1)C(=O)C1CCN(C#N)C1` (stereo not shown) [Example 47, 1-Cyano-N-methyl-N-((2-phenylthiazol-4-yl)methyl)pyrrolidine-3-carboxamide] was 0.1 to 1 µM; that for `N#CN1CCC2(CCN(c3cccc(-c4ccccc4)c3)C2=O)C1` (stereo not shown) [Example 49, 7-([1,1′-Biphenyl]-3-yl)-6-oxo-2,7-diazaspiro[4,4]nonane-2-carbonitrile] was 0.1 to 1 µM; that for `CCc1cccc(-c2cccc3c2CCN3C(=O)[C@@H]2CCN(C#N)C2)c1` [Example 50, (R)-3-(4-(3-Ethylphenyl)indoline-1-carbonyl)pyrrolidine-1-carbonitrile] was 0.1 to 1 µM.
In the case of `N#CN1CCC(C(=O)N2CCc3nc(-c4ccccc4)ccc32)C1` (stereo not shown) [Example 51, 3-(5-Phenyl-2,3-dihydro-1H-pyrrolo[3,2-b]pyridine-1-carbonyl)pyrrolidine-1-carbonitrile] it was 1 to 10 µM; in that of `N#CN1CC[C@@](F)(C(=O)N2CCc3cc(-c4ccccc4)ccc32)C1` [Example 53, (S)-3-Fluoro-3-(5-phenylindoline-1-carbonyl)pyrrolidine-1-carbonitrile], 0.1 to 1 µM.
On to `N#CN1CC[C@](F)(C(=O)N2CCc3cc(-c4ccccc4)ccc32)C1` [Example 54, (R)-3-Fluoro-3-(5-phenylindoline-1-carbonyl)pyrrolidine-1-carbonitrile], for which the IC50 was in the range of 0.1 to 1 µM.
In the case of `N#CN1CC[C@@](F)(C(=O)N2CCc3cc(-c4cccc(Cl)c4)cnc32)C1` [Example 55, (S)-3-(5-(3-Chlorophenyl)-2,3-dihydro-1H-pyrrolo[2,3-b]pyridine-1-carbonyl)-3-fluoropyrrolidine-1-carbonitrile] it was 0.1 to 1 µM; in that of `N#CN1CC[C@](F)(C(=O)N2CCc3cc(-c4cccc(Cl)c4)cnc32)C1` [Example 56, (R)-3-(5-(3-Chlorophenyl)-2,3-dihydro-1H-pyrrolo[2,3-b]pyridine-1-carbonyl)-3-fluoropyrrolidine-1-carbonitrile], less than 0.1 µM; in that of `CC(C)Cn1nccc1-c1ccc2c(c1)CCN2C(=O)C1(F)CCN(C#N)C1` (stereo not shown) [Example 58, 3-Fluoro-3-(5-(1-isobutyl-1H-pyrazol-5-yl)indoline-1-carbonyl)pyrrolidine-1-carbonitrile], 1 to 10 µM.
As to `N#CN1CCC(F)(C(=O)N2CCc3cc(-c4cnn(Cc5ccccc5)c4)ccc32)C1` (stereo not shown) [Example 59, 3-(5-(1-Benzyl-1H-pyrazol-4-yl)indoline-1-carbonyl)-3-fluoropyrrolidine-1-carbonitrile], the IC50 lay within 1 to 10 µM.
In the case of `N#CN1CC[C@H](C(=O)N2CCc3cc(-c4cccc5[nH]ncc45)cnc32)C1` [Example 60, (S)-3-(5-(1H-indazol-4-yl)-2,3-dihydro-1H-pyrrolo[2,3-b]pyridine-1-carbonyl)-pyrrolidine-1-carbonitrile] it was 0.1 to 1 µM.
In the case of `N#CN1CC[C@@H](C(=O)N2CCc3cc(-c4cccc5[nH]ncc45)cnc32)C1` [Example 61, (R)-3-(5-(1H-Indazol-4-yl)-2,3-dihydro-1H-pyrrolo[2,3-b]pyridine-1-carbonyl)-pyrrolidine-1-carbonitrile] it was 1 to 10 µM; in that of `N#CN1CCC(F)(C(=O)N2CCc3cc(-c4ccnn4Cc4ccccn4)ccc32)C1` (stereo not shown) [Example 62, 3-Fluoro-3-(5-(1-(pyridin-2-ylmethyl)-1H-pyrazol-5-yl)indoline-1-carbonyl)pyrrolidine-1-carbonitrile], 1 to 10 µM.
In the case of `N#CN1CCC(F)(C(=O)N2CCc3cc(-c4ccnn4Cc4cccnc4)ccc32)C1` (stereo not shown) [Example 63, 3-Fluoro-3-(5-(1-(pyridin-3-ylmethyl)-H-pyrazol-5-yl)indoline-1-carbonyl)pyrrolidine-1-carbonitrile] it was 1 to 10 µM.
Take `N#CN1CCC(F)(C(=O)N2CCc3cc(-c4ccnn4Cc4ccccc4Cl)ccc32)C1` (stereo not shown) [Example 64, 3-(5-(1-(2-Chlorobenzyl)-1H-pyrazol-5-yl)indoline-1-carbonyl)-3-fluoropyrrolidine-1-carbonitrile]: the IC50 was 1 to 10 µM.
In the case of `N#CN1CCC(F)(C(=O)N2CCc3cc(-c4ccnn4Cc4cccc(Cl)c4)ccc32)C1` (stereo not shown) [Example 65, 3-(5-(1-(3-Chlorobenzyl)-1H-pyrazol-5-yl)indoline-1-carbonyl)-3-fluoropyrrolidine-1-carbonitrile] it was 0.1 to 1 µM; in that of `N#CN1CCC(F)(C(=O)N2CCc3cc(-c4ccnn4Cc4ccc(Cl)cc4)ccc32)C1` (stereo not shown) [Example 66, 3-(5-(1-(4-Chlorobenzyl)-1H-pyrazol-5-yl)indoline-1-carbonyl)-3-fluoropyrrolidine-1-carbonitrile], 0.1 to 1 µM; in that of `N#CN1CCC(F)(C(=O)N2CCc3cc(C(=O)NCc4ccccc4)ccc32)C1` (stereo not shown) [Example 67, N-Benzyl-1-(1-cyano-3-fluoropyrrolidine-3-carbonyl)indoline-5-carboxamide], 1 to 10 µM.
For `CCc1cccc(-c2cc(C(=O)NC)cc3c2CCN3C(=O)[C@@H]2CCN(C#N)C2)c1` [Example 68, (R)-1-(1-Cyanopyrrolidine-3-carbonyl)-4-(3-ethylphenyl)-N-methylindoline-6-carboxamide], the IC50 fell in the range of 0.1 to 1 µM.
In the case of `CNC(=O)c1cc(-c2ccccc2)c2c(c1)N(C(=O)[C@@H]1CCN(C#N)C1)CC2` [Example 69, (R)-1-(1-Cyanopyrrolidine-3-carbonyl)-N-methyl-4-phenylindoline-6-carboxamide] it was 1 to 10 µM.

Values taken from patent publication US10640498B2, “Compounds” (MISSION THERAPEUTICS LIMITED, priority 2016, dated 2020).
